Patent US5635391A, “Isolated DNA encoding a nitrilase polypeptide, hosts containing, and expression thereof optionally assisted by a E. coli GroE chaperone polypeptide” (priority 1992, dated 1997)

What was measured:
[1] = test system: Comamonas testosteroni sp.; assay: Enzymatic activity of Comamonas testosteroni sp. cells on adiponitrile; format: cell-based; details: 52.3 mM adiponitrile, pH 7, 25° C.; 1 U = 1 μmol of product formed per minute
Protocol: A cellular residue containing 13.1 mg of dry weight of cells was suspended in 2 ml of a 52.3 mM solution of adiponitrile in 50 mM potassium phosphate buffer, pH 7. The reaction was carried out at 25° C., with shaking, and the kinetics were followed by sampling. 5-Cyanovaleramide, adipamide, 5-cyanovalerate, adipamate and adipate were determined on each sample by high performance liquid chromatography (HPLC). […] The respective rates of formation of cyanovalerate and adipate were greater than 0.45 and equal to 0.15 U/mg of dry weight of cells (1 U is equal to 1 μmol of product formed per minute).

purified nitrilase [2] = biological target: T1, purified nitrilase (Comamonas testosteroni, UniProt Q59329); assay: Activity of the purified nitrilase as a function of the pH; format: biochemical, Comamonas testosteroni sp.; details: substrate 10 mM, 25° C., U = μmol of cyanovalerate formed/h
T1 construct: about 280 kDa oligomer of about 38 kDa subunits
T1 sequence (Q59329 entry or part of it): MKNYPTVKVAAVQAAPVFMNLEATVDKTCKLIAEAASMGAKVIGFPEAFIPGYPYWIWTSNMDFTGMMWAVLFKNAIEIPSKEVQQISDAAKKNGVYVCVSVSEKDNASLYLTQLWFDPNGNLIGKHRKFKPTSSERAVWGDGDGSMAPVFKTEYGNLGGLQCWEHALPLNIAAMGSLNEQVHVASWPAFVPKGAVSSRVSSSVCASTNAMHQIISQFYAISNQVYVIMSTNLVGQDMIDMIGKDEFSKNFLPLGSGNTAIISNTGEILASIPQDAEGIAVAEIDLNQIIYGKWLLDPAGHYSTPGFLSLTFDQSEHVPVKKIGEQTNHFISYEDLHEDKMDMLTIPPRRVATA
Protocol: The purified nitrilase was tested at different pH values on two substrates, adiponitrile and 5-cyanovalerate, under the conditions indicated in Table 2 below.
COMMON CONDITIONS: [substrate]=10 mM; buffer 10 mM; T 25° C.; [nitrilase]=12 μg/ml for cyanovalerate and 3 μg/ml for adiponitrile (fraction, step 6); U (adiponitrile)=μmol of cyanovalerate formed/h, U (cyanovalerate)=μmol of adipate formed/h.

purified nitrilase [3] = biological target: T1, purified nitrilase; assay: Relative activity of the purified nitrilase on various nitriles; format: biochemical, Comamonas testosteroni sp.; details: acetate buffer 10 mM, pH 4; substrate 10 mM; 25° C.
Protocol: The activities of the purified nitrilase were measured on adiponitrile, 5-cyanovaleramide, 5-cyanovaleric acid, benzonitrile, propionitrile and acrylonitrile.
COMMON CONDITIONS: acetate buffer=10 mM, pH 4; substrate=10 mM; volume=3 ml; T=25° C.; reaction time=1 or 3 h; proteins: from 5 to 30 μg/ml.

E. coli TG1 = assay: Nitrilase activity of control strain E. coli TG1; format: cell-based; details: no IPTG, whole cells, DW 15.5 g/l, 1 ml, substrate 50 mM, 25° C.
Protocol: (§1) The activities of these strains, induced or non-induced, are measured on adiponitrile and 5-cyanovalerate at different pH values and are compared with the negative control strains: E. coli TG1, E. coli TG1 (pXL2035) and Pseudomonas putida G2081.
(§2) The cultures are carried out under the conditions described in Table 4. During the exponential growth phase, one of the two cultures of the recombinant strain is induced with 1 mM IPTG; after 2 h at 37° C., this culture is treated.
(§3) The conditions of the specific activity measurements and the results are collated in Table 5.
(§4) COMMON CONDITIONS: [substrate]=50 mM; T=25° C.; buffer 50 mM; kinetics over 90 min for 1 to 3 and over 120 min for 4 to 8.
(§5) ABBREVIATIONS: W=whole cells; S=sonicated cells; Ua=μmols of cyanovalerate produced/h; Ub=μmols of adipate produced/h; AdN=adiponitrile; CVA=5-cyanovalerate. DW=dry weight.

E. coli TG1 pXL2087 = assay: Nitrilase activity of recombinant strain E. coli TG1 pXL2087; format: cell-based; details: substrate 50 mM; for Activity Ua: DW 0.3 g/l, pH 4.2
Protocol: as §1, §2, §3, §4, §5

E. coli TG1 pXL2035 = assay: Nitrilase activity of control strain E. coli TG1 pXL2035; format: cell-based; details: no IPTG; whole cells; DW 0.06 g/l; 1 ml; pH 7.0; substrate 50 mM
Protocol: as §1, §2, §3, §4, §5

E. coli TG1 pXL2158 = assay: Nitrilase activity of recombinant strain E. coli TG1 pXL2158; format: cell-based; details: no IPTG; whole cells; DW 0.24 g/l; 1 ml; pH 7.0; substrate 50 mM
Protocol: as §1, §2, §3, §4, §5

P. putida G2081 pDSK519 = assay: Nitrilase activity of control strain P. putida G2081 pDSK519; format: cell-based, Pseudomonas putida; details: no IPTG; whole cells; DW 0.3 g/l; 1 ml; pH 7.0; substrate 50 mM
Protocol: as §1, §2, §3, §4, §5

E. coli (pXL2087) = assay: Batch hydrolysis of adiponitrile with E. coli (pXL2087) in suspension; format: cell-based; details: pH 7, 25° C., cells 21 g/l
Protocol: 120 μl or 1068 μmol of adiponitrile were added at 25° C. and with magnetic stirring, at the reaction times 0, 1, 2, 3, 5, 6 and 7 h, to an initial volume of 5 ml of 50 mM phosphate buffer, pH 7, containing the strain E. coli (pXL2087) at an initial concentration of 21 g/l. The reaction was monitored analytically by taking 100 μl samples of the reaction volume every hour.
The mean activities calculated over 30 min after addition of the adiponitrile are collated in Table 6 below.

[4] = test system: E. coli (pXL2087) immobilized on resin; assay: Hydrolysis of adiponitrile in a fixed bed reactor with immobilized E. coli (pXL2087); format: cell-based; details: 28° C., adiponitrile 50 mM, pH 7, flow rate 3.7 ml/h
Protocol: The half-life is determined in a continuously fed fixed bed reactor under the conditions indicated below:
T 28° C.; catalyst 0.5 g or 2 ml or 85 mg of cells (dry weight); [adiponitrile] 50 mM; phosphate buffer 50 mM, pH 7; flow rate 3.7±0.1 ml/h; column: diameter 1 cm, height 3 cm.
The initial activity of the cells was 1.5 μmol of adipate/h/mg of cells (dry weight). 66% of the initial activity is preserved after 32 days or 770 h.

N#CCCCCC#N [Adiponitrile, adiponitrile]
rate of formation of adipate [1]: 0.15 U/mg of dry weight of cells | rate of formation of cyanovalerate [1]: greater than 0.45 U/mg of dry weight of cells | SPECIFIC ACTIVITY (purified nitrilase [2]; Acetate pH 3.0): 2,300 U/mg of protein | SPECIFIC ACTIVITY (purified nitrilase [2]; Acetate pH 4.0): 2,900 U/mg of protein | SPECIFIC ACTIVITY (purified nitrilase [2]; Acetate pH 4.5): 2,800 U/mg of protein | SPECIFIC ACTIVITY (purified nitrilase [2]; Acetate pH 5.0): 2,700 U/mg of protein | SPECIFIC ACTIVITY (purified nitrilase [2]; Phosphate pH 6.0): 2,900 U/mg of protein | SPECIFIC ACTIVITY (purified nitrilase [2]; Phosphate pH 7.0): 2,700 U/mg of protein | SPECIFIC ACTIVITY (purified nitrilase [2]; Phosphate pH 8.0): 2,800 U/mg of protein | RELATIVE ACTIVITY (purified nitrilase [3]): 100% | Activity Ub (E. coli TG1; pH 5.2): 0 μmols of adipate produced/h | Activity Ub (E. coli TG1; pH 7.0): 0 μmols of adipate produced/h | Activity Ub (E. coli TG1 pXL2087; +IPTG, sonicated cells, DW 1.4 g/l, 2 ml, pH 6.2): 17 μmols of adipate produced/h | Activity Ub (E. coli TG1 pXL2087; +IPTG, sonicated cells, DW 1.4 g/l, 2 ml, pH 7.0): 10 μmols of adipate produced/h | Activity Ua (E. coli TG1 pXL2087; +IPTG, whole cells, 1 ml): 159 μmols of cyanovalerate produce | Activity Ub (E. coli TG1 pXL2087; +IPTG, whole cells, DW 1.4 g/l, 1 ml, pH 4.3): 38 μmols of adipate produced/h | Activity Ub (E. coli TG1 pXL2087; +IPTG, whole cells, DW 1.4 g/l, 2 ml, pH 6.2): 18 μmols of adipate produced/h | Activity Ub (E. coli TG1 pXL2087; +IPTG, whole cells, DW 1.4 g/l, 2 ml, pH 7.0): 11 μmols of adipate produced/h | Activity Ub (E. coli TG1 pXL2087; no IPTG, sonicated cells, DW 1.0 g/l, 1 ml, pH 6.2): 3 μmols of adipate produced/h | Activity Ub (E. coli TG1 pXL2087; no IPTG, sonicated cells, DW 1.0 g/l, 1 ml, pH 7.0): 4 μmols of adipate produced/h | Activity Ua (E. coli TG1 pXL2087; no IPTG, whole cells, 1 ml): 75 μmols of cyanovalerate produce | Activity Ub (E. coli TG1 pXL2087; no IPTG, whole cells, DW 1.2 g/l, 2 ml, pH 4.3): 16 μmols of adipate produced/h | Activity Ub (E. coli TG1 pXL2087; no IPTG, whole cells, DW 1.2 g/l, 2 ml, pH 6.2): 11 μmols of adipate produced/h | Activity Ub (E. coli TG1 pXL2087; no IPTG, whole cells, DW 1.2 g/l, 2 ml, pH 7.0): 3.4 μmols of adipate produced/h | Activity Ua (E. coli TG1 pXL2035): 0 μmols of cyanovalerate produce | Activity Ub (E. coli TG1 pXL2035): 0 μmols of adipate produced/h | Activity Ua (E. coli TG1 pXL2158): 270 μmols of cyanovalerate produce | Activity Ua (P. putida G2081 pDSK519): 0 μmols of cyanovalerate produce | SPECIFIC ACTIVITY (mean over 30 min after addition of adiponitrile) (E. coli (pXL2087); reaction time 0.5 h): 16 μmol of adipate/h x mg of dry cells | SPECIFIC ACTIVITY (mean over 30 min after addition of adiponitrile) (E. coli (pXL2087); reaction time 2.5 h): 15 μmol of adipate/h x mg of dry cells | SPECIFIC ACTIVITY (mean over 30 min after addition of adiponitrile) (E. coli (pXL2087); reaction time 5.5 h): 11 μmol of adipate/h x mg of dry cells | SPECIFIC ACTIVITY (mean over 30 min after addition of adiponitrile) (E. coli (pXL2087); reaction time 6.5 h): 11 μmol of adipate/h x mg of dry cells | SPECIFIC ACTIVITY (mean over 30 min after addition of adiponitrile) (E. coli (pXL2087); reaction time 7.7 h): 15 μmol of adipate/h x mg of dry cells | initial activity of the cells [4]: 1.5 μmol of adipate/h/mg of cells (dry weight)
